Measured values from ChEMBL document CHEMBL3745700, “Functionalised isocoumarins as antifungal compounds: Synthesis and biological studies” (Bioorg Med Chem Lett, 2016).
In brackets after ≈: the same amount, converted by molar mass. Activity calls are given as the source filed them. The rule behind the calls is not given here.

Key:
Candida albicans [1] = assay: Antifungal activity against Candida albicans ATCC 10231 by broth microdilution method; format: functional
Candida albicans [2] = assay: Binding affinity to Candida albicans ATCC 10231 DNA assessed as degradation at 25 ug/ml after 12 hrs by agarose gel electrophoresis
MRC5 = assay: Cytotoxicity against human MRC5 cells after 48 hrs by MTT assay; format: cell-based; details: MRC5, 48 h
Candida albicans [3] = assay: Antifungal activity against Candida albicans ATCC 10231 assessed as inhibition of hyphal formation at MIC70 after 36 hrs by microscopic analysis; format: functional, organism-based
[4] = Hemolytic activity in Sheep RBC at MIC and IC50 after 1 hr by multiplate reader analysis; format: ADME, cell-based, Ovis aries; details: erythrocyte
Candida parapsilosis = assay: Antifungal activity against azole-resistant Candida parapsilosis CA-27 clinical isolate by broth microdilution method; format: functional
Pichia kudriavzevii = assay: Antifungal activity against azole-resistant Candida krusei ATCC 6258 by broth microdilution method; format: functional
Candida albicans [5] = assay: Stimulation of hyphal formation in Candida albicans ATCC 10231 at MIC70 after 36 hrs by microscopic analysis; format: functional, organism-based
Candida albicans [6] = assay: Antifungal activity against Candida albicans ATCC 10231 assessed as inhibition of biofilm formation at MIC70 after 48 hrs by propidium iodide/Concanavaline A-FITC staining-based fluorescence microscopic analysis; format: functional, organism-based
Candida albicans [7] = assay: Antifungal activity against Candida albicans ATCC 10231 assessed as growth inhibition at 250 ug/disc by disc diffusion method; format: functional, organism-based

SMILES	MIC (Candida albicans [1])	Activity (Candida albicans [2])	IC50 (MRC5)	inhibition (Candida albicans [3])	Activity [4]	MIC (Candida parapsilosis; Lodderomyces parapsilosis)	MIC (Pichia kudriavzevii)	MIC (Candida parapsilosis)	Activity (Candida albicans [5])	inhibition (Candida albicans [6])	growth inhibition (GI) (Candida albicans [7])
O=c1oc(-n2cccn2)cc2ccccc12	31.2 µg/mL (≈ 147 µM)	inactive	30 µg/mL (≈ 141 µM)	Active	Non-toxic	> 500 µg/mL	> 500 µg/mL				
C[C@@H](c1ncncc1F)[C@](O)(Cn1cncn1)c1ccc(F)cc1F [VORICONAZOLE]	7.8 µg/mL (≈ 22.3 µM)		40 µg/mL (≈ 115 µM)	Active			inactive	inactive			
CCOC(=O)c1cn(-c2cc3ccccc3c(=O)o2)cn1	62.5 µg/mL (≈ 220 µM)		25 µg/mL (≈ 87.9 µM)			> 500 µg/mL	> 500 µg/mL		Active	Active	
C[Si](C)(C)C#Cc1cc2ccccc2c(=O)o1	250 µg/mL (≈ 1030 µM)	inactive	30 µg/mL (≈ 124 µM)		Non-toxic				Active		Active
O=c1oc(-n2cncn2)cc2ccccc12	20 µg/mL (≈ 93.8 µM)	inactive	40 µg/mL (≈ 188 µM)	Active	Non-toxic	> 500 µg/mL	125 µg/mL (≈ 586 µM)			Active	
O=c1oc(Br)cc2ccccc12	15.6 µg/mL (≈ 69.3 µM)	inactive	20 µg/mL (≈ 88.9 µM)	Active	Non-toxic	62.5 µg/mL (≈ 278 µM)	3.9 µg/mL (≈ 17.3 µM)				Active
O=c1oc(-n2cnnn2)cc2ccccc12	15.6 µg/mL (≈ 72.8 µM)	inactive	10 µg/mL (≈ 46.7 µM)	Active	Non-toxic	125 µg/mL (≈ 584 µM)	62.5 µg/mL (≈ 292 µM)				
O=c1oc(-n2c(C(F)(F)F)nc3ccccc32)cc2ccccc12	150 µg/mL (≈ 454 µM)		15 µg/mL (≈ 45.4 µM)						Active		
O=c1oc(-n2ccnc2)cc2ccccc12	62.5 µg/mL (≈ 295 µM)	inactive	25 µg/mL (≈ 118 µM)	Active	Non-toxic						
O=c1oc(-n2cc(Cl)cn2)cc2ccccc12	5 µg/mL (≈ 20.3 µM)		15 µg/mL (≈ 60.8 µM)	Active	Non-toxic	> 500 µg/mL	125 µg/mL (≈ 507 µM)				
COC(=O)/C=C/c1cc2ccccc2c(=O)o1	500 µg/mL (≈ 2170 µM)	inactive	30 µg/mL (≈ 130 µM)	Active	Non-toxic						Active
